Assay results published in US20160279190A1, “MODULATION OF AXON DEGENERATION” (GENENTECH, INC., priority 2008, published 2016).

What was measured:
sympathetic neurons = experiment: toxin-induced degeneration of sympathetic neurons, MTT assay; type: cell-based, rat; details: 24 hour treatment with the toxin alone
Method: Cortical neurons plated for 3-4 days were treated with 300 nM vincristine, a microtubule destabilizer, for 6-72 hours. NGF withdrawal-induced apoptosis and degeneration were assayed between 4-36 hours after the final treatment. Apoptosis and degeneration were assayed using both the MTT assay and the lactate dehydrogenase assay. The MTT (3-(4,5-dimethylthiazol-2-yl)-2,5-diphenyltetrazolium bromide) assay measures cell viability based on mitochondrial function. MTT was added to a total of one tenth of the culture volume to each well and incubated at 37° C. with 5% CO2 for 90-120 minutes. The MTT-containing culture media was aspirated and the cells were resuspended in an equal volume of solubilization solution (10% triton X-100, 1 drop HCl, 50 mL isopropanol). Absorbance (570 and 690 nm) was read using a spectrophotometer. Lactate dehydrogenase (LDH) levels were assayed using a CytoTox non-radioactive LDH assay kit (Promega) to assess the amount of cell death in assays. Fifty μL of media from different treatment conditions were used according to the manufacturer's instructions. […]
Sympathetic cervical ganglia were dissected from postnatal day 1 Sprague-Dawley rats (Charles River Labs) and collected in a dish containing Ultraculture media (Lonza) with 5% fetal bovine serum (Invitrogen). […] The cell slurry was filtered over a […] cell strainer (Falcon) and cell number was counted. […]

DRGs = experiment: Campenot chamber local axon degeneration, anti-NGF in axon compartment; type: cell-based, mouse; details: inhibitor 5 μM; anti-NGF in axon compartment, 28 hours
Method: Teflon dividers (Tyler Research) were cleaned by washing in water and wiping them clean of any residual grease. Dividers were then soaked in Nochromix (Godax Laboratories)/sulfuric acid overnight, rinsed five times in distilled and autoclaved water (SQ water), boiled for 30 minutes, and then air-dried before use.
Mouse laminin (5 μg/ml in sterile filtered water; Invitrogen) was added to PDL coated 35 mm dishes (BD Biosciences) and they were incubated for 1 hour at 37° C., followed by two rinses in SQ water. The dishes were vacuum-dried and then air-dried in a laminar flow hood for 15 minutes. Prepared dishes were then scored with a pin rake (Tyler Research). […] High vacuum grease (VWR) was added to each Teflon divider under a dissection scope. The laminin coated PDL dishes were inverted and dropped onto the Teflon divider, with additional pressure added by use of a toothpick in the non-track-containing regions. Dishes were incubated for 1 hour at 37° C. Five hundred microliters of NBM+MC (50 ng/ml NGF) solution was added to each of the side compartments, and a grease barrier was added in front of the center cell slot.
Free E13.5 spinal cords were dissected from mouse embryos and placed into NBM+MC (25 ng/ml NGF) solution. DRGs were detached from the spinal cord with a tungsten needle. An NBM+MC-lubricated P200 pipette was used to move DRGs into a 1.5 ml tube. DRGs were pelleted with a tabletop centrifuge for 30 seconds. The supernate was discarded and 0.05% Trypsin/EDTA (cold) was added. The pellet was resolubilized with a pipette and incubated at 37° C. for 15 minutes with constant agitation (650 RPM). The sample was again centrifuged and the supernate discarded. The pellet was resuspended in warm NBM+MC (50 ng/ml NGF) solution and triturated with a flamed glass pipette 20 times, followed by trituration with a fire-bored glass pipette another 20 times. The samples were again centrifuged and the resulting pellets were resuspended in 0.5 ml NBM+MC (50 ng/ml NGF) solution. The cells were diluted to a final concentration of 2.5×10^6 cells/ml. The cell suspensions were loaded into a 1 ml syringe with a 22 gauge needle. The center slot of the Campenot divider was filled using the syringe (to a volume of at least 50 μl). The Campenot chamber was incubated overnight at 37° C. 2.5 ml NGF+MC (50 ng/ml NGF) solution was added to the center compartment and the grease gate was removed. The outer medium (cell body compartment) was replaced after three days with 2.5 ml NBM+MC medium (with 25 ng/ml NGF). After five days in culture, one distal compartment was washed three times with warmed NBM+MC (no NGF) solution. After the third wash, 500 μl NBM+MC (no NGF) solution was added to the axon compartment in combination with either 0.5% DMSO or an inhibitor. The cell body compartment was replaced with 2.5 ml NBM+MC medium (with 25 ng/ml NGF) containing either 0.5% DMSO or inhibitor.
After 28 hours of anti-NGF antibody treatment, 8% PFA/30% sucrose solution (see above) was added directly to the culture medium at a 1:1 dilution and incubated for 30 minutes. The Teflon divider was removed after the first 15 minutes of addition. The system was washed once with 2.5 ml PBS prior to immunostaining. Neurons were blocked in 5% BSA/0.2% triton in PBS for 30 minutes. The primary antibody Tuj1 (Covance) was added to a final dilution of 1:1000 in PBS containing 2% BSA and incubated overnight at 4° C. The dish was washed once with PBS. […] The dish was washed twice with PBS, and a 22×22 mm coverslip (VWR) was added with 350 μl of fluoromount G (Electron Microscopy Sciences). The neurons were visualized by use of a fluorescence microscope.
As described above, E13.5 DRGs were isolated and grown for 5 days in a Campenot chamber.

[1] = tested on: heregulin induced tyrosine phosphorylation in MDA-MB-453 cells; details: published source (footnote b), read-out: Cellular IC50; cited from earlier work
[2] = tested on: protein tyrosine phosphorylation in 3T3-Her2 cells; details: published source (footnote c), read-out: Cellular IC50; cited from earlier work

Row | SMILES | % viability (normalized) (sympathetic neurons) [%] | Axon Compartment (axon protected when inhibitor is in axon compartment) (DRGs) | Cell Body Compartment (axon protected when inhibitor is in cell body compartment) (DRGs) | IC50 [1] [µM] | IC50 [2] [µM]
1 | CC[C@@]1(O)C(=O)OCc2c1cc1n(c2=O)Cc2cc3ccccc3nc2-1 [camptothecin] | 79 |  |  |  | 
2 | C=CC(=O)Nc1ccc2ncnc(Nc3cccc(Br)c3)c2c1 [PD168393] |  | Yes (1) | No (1) | 0.005 | 100
